Read-outs that look alike come from different tables or passages of the source.
Experiments:
[1] = system: Hyp1-NLuc Plasmodium falciparum-infected erythrocytes (new permeability pathway, NPP); assay: microbe, parasite or virus in culture; details: Erythrocyte, 0.33 h, read-out: % of control remaining
[2] = system: Hyp1-NLuc Plasmodium falciparum-infected erythrocytes (new permeability pathway, NPP); assay: microbe, parasite or virus in culture; details: Erythrocyte, 0.33 h, read-out: Mean RLU at 28 min (As % of DMSO control)

Structure (SMILES)	activity at 2 µM [1]	activity at 2 µM [2]
CC1CCCCN1CCCNC(=O)c1ccc2c(c1)sc1nc(-c3ccc(F)cc3)cn12 (stereo not shown) [MMV000634]	67.5%	94.7%
Cc1cc(Nc2ccc(OCc3ccccc3)cc2)nc2cc(O)ccc12 [MMV007181]	108%	105%
O=C(Cc1ccccc1)NC(c1ccc(Cl)cc1)c1c(O)ccc2ccccc12 (stereo not shown) [MMV665972]	69.4%	68.8%
CN(C)CCCNCc1ccc(-c2ccc(F)c(Cl)c2)o1 [MMV020505]	106%	105%
Oc1ccccc1CN1CCN(C(c2ccccc2)c2ccccc2)CC1 [MMV011795]	113%	115%
COc1ccc2c(=O)cc(C(Cl)(Cl)Cl)oc2c1 [MMV665820]	102%	105%
O=C(Nc1ccc(-c2nc3cc4ccccc4cc3[nH]2)cc1)c1cccc(Br)c1 [MMV019241]	113%	103%
CSc1ccccc1C(=O)Nc1nc(-c2ccccn2)cs1 [MMV001246]	106%	112%
COc1ccc(-c2cc3c(nn2)-c2ccccc2C3=O)cc1 [MMV666026]	108%	98.8%
COc1ccc2nc(N)nc(C)c2c1 [MMV665897]	93.5%	103%
CCCc1cc(O)c2c3c(c(=O)oc2c1)CN(C)CC3 [MMV665841]	103%	107%
CCC(c1ccccc1)c1nn2c(-c3cccs3)nnc2s1 (stereo not shown) [MMV665876]	40.7%	85.7%
O=C(NC1CCN(Cc2ccccc2)CC1)c1cc2nc(-c3ccc(Cl)s3)cc(C(F)(F)F)n2n1 [MMV396635]	101%	101%
COc1cc(OC)cc(N2C(=O)N(Cc3ccc(C(C)(C)C)cc3)c3ccccc3S2(=O)=O)c1 [MMV008173]	115%	103%
COc1cccc(-c2nn(C)c3sc(C(=O)NCCN4CCN(c5ccccc5F)CC4)cc23)c1 [MMV019064]	118%	110%
CCCCCCc1cc2cc(-c3nc4ccccc4[nH]3)c(=Nc3ccccc3C)oc2cc1O [MMV666597]	111%	102%
CCOc1ccc(Nc2ccnc3cc(Cl)ccc23)cc1 [MMV007285]	102%	107%
COc1ccccc1C(=O)ON=C(N)Cc1cccc2ccccc12 [MMV666686]	96.4%	102%
COc1cc(C(=O)Nc2nc3c(cc4c5c(cccc53)CC4)s2)cc(OC)c1OC [MMV396665]	102%	103%
Brc1ccc(Nc2nc3ccccc3nc2Nc2ccc(Br)cc2)cc1 [MMV007224]	104%	95.5%
COc1ccc(NC(=O)C2c3ccccc3C(=O)N(CC(C)C)C2c2cccs2)cc1 (stereo not shown) [MMV000662]	85.7%	85.9%
COc1ccc(C(=O)C(CCC(CNC(C)(C)C)C(=O)c2ccc(OC)cc2)CNC(C)(C)C)cc1 (stereo not shown) [MMV007591]	102%	103%
COc1ccc(CNC(=O)c2cc3c(=O)n4ccccc4nc3n(CCc3ccccc3)c2=N)cc1 [MMV665881]	98%	104%

Structure (SMILES)	activity at 2 µM [1]	activity at 2 µM [2]
CCOC(=O)C1=C(C)N=c2sc(=Cc3cc(Cl)ccc3O)c(=O)n2C1c1ccc(OC)cc1 (stereo not shown) [MMV665971]	102%	101%
O=C(Nc1ccc(C23CC4CC(CC(c5ccccc5)(C4)C2)C3)cc1)c1cccs1 [MMV007574]	111%	106%
OC1=C2C(=Nc3ccccc3SC2c2ccc(Br)cc2)c2ccccc21 (stereo not shown) [MMV007127]	114%	108%
O=C(Nc1ccccc1O)c1ccc(-c2ccc(Cl)cc2Cl)o1 [MMV665948]	120%	105%
CCCCc1c(CCC)c(=N)c2ccccc2n1C [MMV007764]	111%	110%
COc1ccc(C(=O)NC(c2ccccc2Cl)c2cc(Cl)c3cccnc3c2O)cc1 (stereo not shown) [MMV666022]	113%	104%
CCOc1ccc(CCNC(=O)c2cccs2)cc1OCC [MMV007978]	114%	112%
CCOc1ccccc1CN1CCc2nc3cc(C(C)(C)C)nn3c(O)c2C1 [MMV396595]	86.5%	88.3%
COc1ccc(-c2nonc2NC(=O)c2cccc(C)c2)cc1OC [MMV665890]	113%	104%
O=C(NC1CCN(Cc2ccccc2)CC1)c1cc(-c2cccnc2)nc2ccc(Cl)cc12 [MMV020490]	98.9%	101%
OCCNc1nc(Nc2ccc(Cl)c(Cl)c2)nc2ccccc12 [MMV001041]	95.1%	97.4%
CCOC(=O)c1cnc2c(C)cccc2c1Nc1ccc(C(C)=O)cc1 [MMV006250]	103%	95.8%
COc1ccccc1CNC(=O)CCn1c(=O)[nH]c2ccccc2c1=O [MMV665916]	98.4%	98.8%
COc1ccc(C=C2SC(Nc3ccc(F)cc3)=NC2=O)c(OC)c1 [MMV084434]	27.1%	36.5%
OC(CNCc1ccccc1)Cn1c2ccccc2c2ccccc21 (stereo not shown) [MMV000839]	110%	107%
O=C(Nc1cccc(C2=NCCN2)c1)Nc1cccc(C2=NCCN2)c1 [MMV665810]	84.4%	85.8%
Cc1cc(C)c2nc(N3CCC(C(=O)NCCCN4CCC(N5CCCCC5)CC4)CC3)sc2c1 [MMV019780]	111%	107%
CCCCOc1ccc(C(=O)Nc2cc(C)on2)cc1 [MMV007906]	115%	117%
O=C(Nc1ccc(Cl)cc1)N1CCN(c2ccc3nncn3n2)CC1 [MMV665917]	27.3%	53.8%
Cn1c(=O)c2cc(C(=O)NCCCN3CCCCCC3)sc2c2ccccc21 [MMV019313]	74.1%	104%
COc1ccc(-c2nonc2NC(=O)c2cccc(Cl)c2)cc1OC [MMV020660]	109%	108%
COc1ccc2c(c1)OC(O)(C(F)(F)C(F)(F)F)CC2=O (stereo not shown) [MMV007839]	93.7%	104%
COc1ccc(-c2cn3c(C(=O)Nc4ccccc4Cl)c(-c4ccccc4)c4c3n2CCCC4)cc1 [MMV020403]	106%	103%

Structure (SMILES)	activity at 2 µM [1]	activity at 2 µM [2]
COc1ccc(C(=O)NC(c2ccc(Cl)cc2Cl)c2cc(Cl)c3cccnc3c2O)cc1 (stereo not shown) [MMV666054]	106%	101%
COc1ccc(C(C)=O)cc1N1C(=O)C2C(C1=O)C1(c3ccccc3)C(=O)C2(c2ccccc2)C(c2ccc(C)cc2)=C1c1ccc(C)cc1 (stereo not shown) [MMV007695]	98.4%	98.9%
Nc1nc(Nc2cccc(F)c2)nc2ccccc12 [MMV080034]	94.5%	93.1%
CCCCC(O)(c1ccc(Cl)cc1)C(CN1CCOCC1)c1ccc(Cl)cc1 (stereo not shown) [MMV000619]	114%	108%
CC(C)(C)c1ccc(C2CC3=Nc4ccccc4N(C(=O)c4ccccc4Cl)C(c4ccc(F)cc4)C3=C(O)C2)cc1 (stereo not shown) [MMV011436]	106%	106%
CCOc1cc2c(cc1OCC)C(c1cc(OC)c(O)cc1Cl)NCC2 (stereo not shown) [MMV008956]	100%	102%
CCCc1c(C)nc2ccccc2c1O [MMV666081]	115%	105%
CC(C)c1ccc(CNCC(O)c2ccccc2)cc1 (stereo not shown) [MMV001049]	116%	113%
CC1=C(CC(=O)c2cccc([N+](=O)[O-])c2)C(=O)c2ccccc2C1=O [MMV666125]	101%	96.1%
O=C(Nc1ccc(CN2CCOCC2)cc1)c1ccc(-c2ccc(Br)cc2)o1 [MMV665901]	105%	99.8%
C=CCc1c(C)nc2ccccc2c1O [MMV006913]	115%	116%
CN1CCN(c2ccc(Nc3c4ccccc4nc4ccccc34)cc2)CC1 [MMV006172]	96.4%	97.7%
O=C1c2ccc3c4c(ccc(c24)C(=O)N1CCCCO)C(=O)N(CCCCO)C3=O [MMV009085]	58.9%	93.1%
COc1ccc(C2=C(c3ccc(OC)cc3)C3(c4ccccc4)C(=O)C2(c2ccccc2)C2C(=O)N(c4ccc(C)cc4)C(=O)C23)cc1 (stereo not shown) [MMV666101]	107%	108%
CCN1CCN(c2cc(C)c3cc(NC(=O)c4ccc(OC)c(OC)c4)ccc3n2)CC1 [MMV019074]	118%	104%
CCOC(=O)C1CCN(C(=O)CN2C(=O)c3ccccc3C2c2c[nH]c3ccccc23)CC1 (stereo not shown) [MMV011576]	107%	107%
Cc1cc(C)c2c(c1)OCN(Cc1ccccc1Cl)C2 [MMV006558]	108%	108%
O=C(Nc1ccccc1O)c1ccc(Oc2cccc(C(=O)Nc3ccccc3O)c2)cc1 [MMV665888]	104%	102%
COc1nc(Nc2ccc(C(C)C)cc2)nc(OC)n1 [MMV007808]	110%	110%
CN(C)c1ccc(C=Cc2nc(=O)c3ccccc3o2)cc1 [MMV006309]	19%	36.4%
COc1cc(-c2nc(-c3ccc(Sc4ccccc4)cc3)c(-c3ccccc3)[nH]2)cc(OC)c1O [MMV007273]	105%	97.2%
Cc1cc(N2CCN(C3CCCC3)CC2)n2c(nc3ccccc32)c1C#N [MMV006706]	117%	118%
